# Laboratory results taken from EP4653445A1, “CDK INHIBITOR AND CRYSTAL FORM OF PHARMACEUTICALLY ACCEPTABLE SALT THEREOF, AND USE THEREOF” (CSPC Zhongqi Pharmaceutical Technology (Shijiazhuang) Co., …, priority 2023, dated 2024).
# Legend:
# [1] = Dynamic vapor sorption (DVS) test; assay type: physicochemical; details: DVS
# Protocol: • Instrument: TA Instruments Q5000 SA • Detection method: 20 to 50 mg of the sample was placed in a tared sample basket and automatically weighed, and DVS testing was performed according to the parameters in Table 7: Step Time: 60 min; Equilibration Time per RH%: 1 hour; Total Gas Flow Rate: 200 sccm; Gradient mode: 0%-90%-0% humidity variation, with a humidity variation amount of 10% for each gradient level between 0% and 90%, and gradient endpoint was determined by dm/dt < 0.01% maintained for 10 minutes.
# [2] = Stability test, samples placed open for 7 days (HPLC and XRPD); assay type: physicochemical; details: for XRPD-7days / Purity (Peak area%) 7 days: open
# Description: Subsequently, the samples after 7 days were respectively detected by HPLC and XRPD to determine their chemical and physical stabilities.
# [3] = Grinding or crushing of the crystalline form; assay type: physicochemical
# Description: Table 28 Results of Stability Test
# [4] = Stress testing (high temperature, high humidity, illumination); assay type: physicochemical
# [5] = Accelerated stability testing; assay type: physicochemical; details: 40°C±2°C/75%±5%RH, simulated commercial packaging
# [6] = Long-term stability testing; assay type: physicochemical; details: 25°C±2°C/60%±5%RH, simulated commercial packaging
# [7] = Stability test, samples placed open for 7 days (HPLC and XRPD); assay type: physicochemical; details: HPLC
# [8] = Solubility comparison in water, SGF, FaSSIF and FeSSIF (HPLC of filtrates, XRPD of filter cakes); details: SGF, time not stated
# [9] = High Humidity (92.5% RH), 7 days
# [10] = High Humidity (92.5% RH), 14 days
# [11] = High Humidity (92.5% RH), 30 days
# [12] = High Temperature (60°C), 7 days
# [13] = High Temperature (60°C), 14 days
# [14] = High Temperature (60°C), 30 days
# [15] = Illumination Testing 4500lx±500lx, 7 days
# [16] = Illumination Testing 4500lx±500lx, 14 days
# [17] = Illumination Testing 4500lx±500lx, 30 days
smiles,measurement,setting,value
CC(=O)c1c(C)c2cnc(Nc3ccc4c(c3)OC[C@@H]3CN(C5CCN(C)CC5)CCN43)nc2n(C2CCCC2)c1=O [crystalline form A-I of the free base of compound A],hygroscopic properties,[1]; 0%-90% RH,non-hygroscopic
same,weight change,[1]; across 0%-90% RH,approximately 0.17%
same,XRPD-7days,[2]; 40°C /75%RH,Unchanged
same,Purity (Peak area%) 7 days,"[2]; 40°C /75%RH, HPLC",99.20 Peak area%
same,chemical stability,"[2]; 60 °C, 92.5% RH and 40 °C/75% RH for 7 days, HPLC",chemically stable
same,XRPD-7days,[2]; 60°C,Unchanged
same,Purity (Peak area%) 7 days,"[2]; 60°C, HPLC",99.24 Peak area%
same,XRPD-7days,[2]; 92.5%RH,Unchanged
same,Purity (Peak area%) 7 days,"[2]; 92.5%RH, HPLC",99.24 Peak area%
same,crystalline form (XRPD) after 7 days,"[2]; under the three conditions 60 °C, 92.5% RH and 40 °C/75% RH",remained unchanged
same,crystalline form after grinding or crushing,[3],remained unchanged
same,Content (%),[4]; 0 Day,99.5%
same,Description Appearance,[4]; 0 Day,Yellow solid
same,Total impurities (%),[4]; 0 Day,0.84%
same,crystalline form,[4]; 0 Day,crystalline form A-I of free base
same,loss on drying (%),[4]; 0 Day,0.03%
same,Content (%),[4]; [9],100.2%
same,Description Appearance,[4]; [9],Yellow solid
same,Hygroscopic weight gain (%),[4]; [9],0.03%
same,Total impurities (%),[4]; [9],0.76%
same,loss on drying (%),[4]; [9],0.06%
same,Content (%),[4]; [10],99.6%
same,Description Appearance,[4]; [10],Yellow solid
same,Hygroscopic weight gain (%),[4]; [10],0.05%
same,Total impurities (%),[4]; [10],0.78%
same,loss on drying (%),[4]; [10],0.07%
same,Content (%),[4]; [11],101.0%
same,Description Appearance,[4]; [11],Yellow solid
same,Hygroscopic weight gain (%),[4]; [11],0.09%
same,Total impurities (%),[4]; [11],0.87%
same,crystalline form,[4]; [11],Unchanged
same,loss on drying (%),[4]; [11],0.05%
same,Content (%),[4]; [12],100.4%
same,Description Appearance,[4]; [12],Yellow solid
same,Total impurities (%),[4]; [12],0.76%
same,loss on drying (%),[4]; [12],0.05%
same,Content (%),[4]; [13],100.6%
same,Description Appearance,[4]; [13],Yellow solid
same,Total impurities (%),[4]; [13],0.83%
same,loss on drying (%),[4]; [13],0.05%
same,Content (%),[4]; [14],100.1%
same,Description Appearance,[4]; [14],Yellow solid
same,Total impurities (%),[4]; [14],0.81%
same,crystalline form,[4]; [14],Unchanged
same,loss on drying (%),[4]; [14],0.03%
same,Content (%),[4]; [15],101.0%
same,Description Appearance,[4]; [15],Yellow solid
same,Total impurities (%),[4]; [15],0.76%
same,loss on drying (%),[4]; [15],0.07%
same,Content (%),[4]; [16],100.2%
same,Description Appearance,[4]; [16],Yellow solid
same,Total impurities (%),[4]; [16],0.79%
same,loss on drying (%),[4]; [16],0.06%
same,Content (%),[4]; [17],100.2%
same,Description Appearance,[4]; [17],Yellow solid
same,Total impurities (%),[4]; [17],0.84%
same,crystalline form,[4]; [17],Unchanged
same,loss on drying (%),[4]; [17],0.07%
same,stability in stress testing (conclusion),"[4]; high temperature, high humidity and illumination conditions",good stability
same,stability under illumination,"[4]; illuminance 4500 lx±500 lx, total not less than 1.2×10^6 lux·hr, near-UV not less than 200 W·hr/m^2",relatively stable
same,"description, loss on drying, relevant substances, crystalline form and content compared with 0 month",[5]; 6 months,basically the same
same,Description Appearance,[5]; 0 months,Yellow solid
same,Measured content (%),[5]; 0 months,99.5%
same,Total impurities (%),[5]; 0 months,0.84%
same,crystalline form,[5]; 0 months,crystalline form A-I of free base
same,loss on drying (%),[5]; 0 months,0.03%
same,Description Appearance,[5]; 1 month,Yellow solid
same,Measured content (%),[5]; 1 month,100.4%
same,Total impurities (%),[5]; 1 month,0.80%
same,loss on drying (%),[5]; 1 month,0.04%
same,Description Appearance,[5]; 2 months,Yellow solid
same,Measured content (%),[5]; 2 months,100.8%
same,Total impurities (%),[5]; 2 months,0.82%
same,loss on drying (%),[5]; 2 months,0.02%
same,Description Appearance,[5]; 3 months,Yellow solid
same,Measured content (%),[5]; 3 months,100.6%
same,Total impurities (%),[5]; 3 months,0.85%
same,crystalline form,[5]; 3 months,Unchanged
same,loss on drying (%),[5]; 3 months,0.02%
same,Description Appearance,[5]; 6 months,Yellow solid
same,Measured content (%),[5]; 6 months,100.9%
same,Total impurities (%),[5]; 6 months,0.77%
same,crystalline form,[5]; 6 months,Unchanged
same,loss on drying (%),[5]; 6 months,0.08%
same,"description, loss on drying, relevant substances, crystalline form and content compared with 0 month",[6]; 18 months,basically the same
same,Description Appearance,[6]; 0 months,Yellow solid
same,Measured content (%),[6]; 0 months,99.5%
same,Total impurities (%),[6]; 0 months,0.84%
same,crystalline form,[6]; 0 months,crystalline form A-I of free base
same,loss on drying (%),[6]; 0 months,0.03%
same,Description Appearance,[6]; 3 months,Yellow solid
same,Measured content (%),[6]; 3 months,100.8%
same,Total impurities (%),[6]; 3 months,0.89%
same,crystalline form,[6]; 3 months,Unchanged
same,loss on drying (%),[6]; 3 months,0.02%
same,Description Appearance,[6]; 6 months,Yellow solid
same,Measured content (%),[6]; 6 months,100.6%
same,Total impurities (%),[6]; 6 months,0.75%
same,crystalline form,[6]; 6 months,Unchanged
same,loss on drying (%),[6]; 6 months,0.05%
same,Description Appearance,[6]; 9 months,Yellow solid
same,Measured content (%),[6]; 9 months,99.6%
same,Total impurities (%),[6]; 9 months,0.73%
same,crystalline form,[6]; 9 months,Unchanged
same,loss on drying (%),[6]; 9 months,0.05%
same,Description Appearance,[6]; 12 months,Yellow solid
same,Measured content (%),[6]; 12 months,100.8%
same,Total impurities (%),[6]; 12 months,0.78%
same,crystalline form,[6]; 12 months,Unchanged
same,loss on drying (%),[6]; 12 months,0.05%
same,Description Appearance,[6]; 18 months,Yellow solid
same,Measured content (%),[6]; 18 months,98.7%
same,Total impurities (%),[6]; 18 months,0.71%
same,crystalline form,[6]; 18 months,Unchanged
same,loss on drying (%),[6]; 18 months,0.03%
same,Purity (Peak area%) 0 day,[7],99.16 Peak area%
same,solubility in SGF,[8],more than 5 mg/mL
